# Test results published in PMC9528225 (Molecular Immunology, 2012).
# Biological target: HLA-DR15 (DRB1*1501) (Homo sapiens, UniProt P01903+P01911)
# Test: biochemical
# Format: binding
compound,measurement,value
CC(C)C[C@H](NC(=O)[C@H](Cc1ccc(O)cc1)NC(=O)[C@H](C)NC(=O)[C@H](CCCNC(=N)N)NC(=O)[C@H](CC(C)C)NC(=O)[C@H](CCC(N)=O)NC(=O)[C@H](CCC(=O)O)NC(=O)[C@H](C)NC(=O)[C@@H](N)CCC(=O)O)C(=O)N[C@@H](CC(=O)O)C(=O)NCC(=O)N[C@H](C(=O)NCC(=O)N[C@H](C(=O)N[C@@H](CCC(=O)O)C(=O)O)C(C)C)[C@@H](C)O [A3 152–166],IC50,18 nM
